Assay results taken from patent US20220401514A1, “ANTIMICROBIAL, BACTERIOPHAGE-DERIVED POLYPEPTIDES AND THEIR USE AGAINST GRAM-NEGATIVE AND ACID-FAST BACTERIA” (CONTRAFECT CORPORATION, priority 2019, published 2022).
Where two headings read alike, the source gives them in different places.

Columns and labels:
P. aeruginosa (CFS 1292) = assay: microbe, parasite or virus in culture; format: cell-based, Pseudomonas aeruginosa
[1] = system: P. aeruginosa strain CFS-1292; assay: MIC in presence of divalent cations (calcium chloride, magnesium sulfate); format: cell-based, Pseudomonas aeruginosa
Protocol: Next, Chp peptides were evaluated in the presence of different divalent cations. […]; (2) in the presence of 2 mM calcium chloride alone; (3) in the presence of 1 mM magnesium sulfate alone; and (4) in the presence of both 2 mM calcium chloride and 1 mM magnesium sulfate. […]

[2] = Stability assessment in 100% CAA; format: in vitro ADME; design: unit not given beside the values
Protocol: Stability was assessed after incubation in 100% human serum at 37° C. after 10 minutes, 1 hour, and 2 hours.
Stability assessment was further conducted in 100% CAA and rabbit serum using the same methodology discussed above.

[3] = system: carbapenem-resistant P. aeruginosa clinical isolate CFS-1292; assay: MIC by modified CLSI broth microdilution against P. aeruginosa CFS-1292 (CAA, CAA + human serum); format: cell-based, Pseudomonas aeruginosa
M. smegmatis = assay: 45 hr MIC against M. smegmatis (NTM), Mueller Hinton broth; format: cell-based, Mycobacterium smegmatis
Klebsiella pneumoniae = assay: microbe, parasite or virus in culture; format: cell-based; conditions: CAA without human serum
[4] = system: P. aeruginosa strain CFS-1292; assay: MIC in presence and absence of NaCl (140 mM); format: cell-based, Pseudomonas aeruginosa
Protocol: Certain Chp peptides were evaluated over a range of physiological NaCl levels and pH values, and were further evaluated for activity in the presence of various divalent cations.

S. maltophilia = assay: MIC against S. maltophilia isolates; format: cell-based, Stenotrophomonas maltophilia
Outline: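 MIC in μg/mL for Chp peptides across several S. maltophilia isolates, n denoting the number of isolates tested.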

[5] = system: P. aeruginosa strain PAO1; assay: MIC against PAO1 in Mueller-Hinton broth with 50% human plasma or human serum; format: cell-based, Pseudomonas aeruginosa
[6] = system: P. aeruginosa strain CFS-1292; assay: MIC at pH 6, pH 7 and pH 8; format: cell-based, Pseudomonas aeruginosa
Protocol: The Chp peptides were further evaluated at varying pH levels. The MIC values were determined at pH 6, pH 7, and pH 8 for 18 different Chp peptides against P. aeruginosa strain CFS-1292. […]

[7] = system: Acinetobacter baumannii strain 30; assay: Checkerboard assay (FICI) with antibiotics, A. baumannii; format: cell-based; design: key to FIC Index: FICI = FIC A + FIC B; ≤0.5 synergy, ≥2 antagonism; conditions: for Chp peptide FIC / Chp peptide MIC: checkerboard
[8] = system: P. aeruginosa strain CFS 1292; format: cell-based, Pseudomonas aeruginosa
[9] = S. maltophilia isolates (n per peptide in table)
[10] = in combination with Azithromycin
[11] = in combination with Ciprofloxacin
[12] = in combination with Levofloxacin
[13] = in combination with Piperacillin

MRLKMARRRYRLPRRRSRRLFSRTALRMHPRNRLRRIMRGGIRF [Chp2]
Passage MIC Passage #1 (Untreated) (P. aeruginosa (CFS 1292); Passage #1, MIC of agent on untreated culture): 0.25 µg/mL
Passage MIC Passage #1 (P. aeruginosa (CFS 1292); Passage #1, colonies from spot dilution, duplicates (1),(2)): 0.25 µg/mL
Passage MIC Passage #2 (Untreated) (P. aeruginosa (CFS 1292); Passage #2, MIC of agent on untreated culture): 0.25 µg/mL
Passage MIC Passage #2 (P. aeruginosa (CFS 1292); Passage #2, colonies from spot dilution, duplicates (1),(2)): 0.25 µg/mL
Passage MIC Passage #3 (Untreated) (P. aeruginosa (CFS 1292); Passage #3, MIC of agent on untreated culture): 0.25 µg/mL
Passage MIC Passage #3 (P. aeruginosa (CFS 1292); Passage #3, colonies from spot dilution, duplicates (1),(2)): 0.25 µg/mL
Passage MIC Passage #4 (Untreated) (P. aeruginosa (CFS 1292); Passage #4, MIC of agent on untreated culture): 0.25 µg/mL
Passage MIC Passage #4 (P. aeruginosa (CFS 1292); Passage #4, colonies from spot dilution, duplicates (1),(2)): 0.25 µg/mL
Passage MIC Passage #5 (Untreated) (P. aeruginosa (CFS 1292); Passage #5, MIC of agent on untreated culture): 0.25 µg/mL
Passage MIC Passage #5 (P. aeruginosa (CFS 1292); Passage #5, colonies from spot dilution, duplicates (1),(2)): 0.25 µg/mL
MIC Center (P. aeruginosa (CFS 1292); spot dilution assay, colonies from center of clearing zone): No growth
MIC Periphery (P. aeruginosa (CFS 1292); spot dilution assay, colonies from periphery of clearing zone): 0.25 µg/mL
MIC Untreated control (P. aeruginosa (CFS 1292); spot dilution assay, untreated control): 0.25 µg/mL
propensity towards resistance (P. aeruginosa (CFS 1292); spot dilution colonies, five passages total): no propensity towards resistance
MIC ([1]; CAA media + 1 mM MgSO4): 0.5 µg/mL
MIC ([1]; CAA media + 2 mM CaCl2): 0.25 µg/mL
MIC ([1]; CAA media + + 1 mM MgSO4): 0.25 µg/mL
MIC ([1]; CAA media alone): 0.5 µg/mL
MIC (100% CAA) [2]: 0.25
MIC (μg/mL) against CFS-1292 in 100% CAA (1st run/2nd run) ([3]; 100% CAA, 1st run or single value): 0.5 µg/mL
MIC (μg/mL) against CFS-1292 in CAA + […] human serum ([3]; CAA + […] human serum): 0.5 µg/mL
45 hr MIC (M. smegmatis; M. smegmatis MC^2 155, Run #1): 4 µg/mL
45 hr MIC (M. smegmatis; M. smegmatis MC^2 155, Run #2): 4 µg/mL
MIC (Klebsiella pneumoniae; Klebsiella pneumoniae (ATCC 10031, MIC control strain), RSC 814): 4 µg/mL
MIC (Klebsiella pneumoniae; Klebsiella pneumoniae (g2-3 HM35K), RSC 1138): 4 µg/mL
MIC (Klebsiella pneumoniae; Klebsiella sp. (HM-44; colon, Crohn's disease), RSC 1139): 2 µg/mL
MIC (Klebsiella pneumoniae; Klebsiella spp. (HM-223; gut of Crohn's disease patient), RSC 1131): 4 µg/mL
Fold change in MIC ([4]; CAA + 140 mM NaCl versus CAA without added NaCl): 1
MIC, CAA + 140 mM NaCl ([4]; CAA + 140 mM NaCl, P. aeruginosa CFS-1292): 0.5 µg/mL
MIC, CAA (no added NaCl) ([4]; CAA, no added NaCl, P. aeruginosa CFS-1292): 0.5 µg/mL
MIC50 (S. maltophilia; [9]): 0.5 µg/mL
MIC100 (S. maltophilia; [9]): 1 µg/mL
MIC Range (S. maltophilia; [9]): 0.5 to 1 µg/mL
activity against S. maltophilia (S. maltophilia; Table 45 isolates): active
MIC [5]: 2 µg/mL
Minimal inhibitory concentration, Human Serum [5]: 2 µg/mL
MIC ([6]; CAA media (pH 7)): 0.25 µg/mL
MIC ([6]; pH 6): 0.25 µg/mL
MIC ([6]; pH 7): 0.5 µg/mL
MIC ([6]; pH 8): 0.5 µg/mL
FIC Index ([7]; Chp peptide + Amikacin): 0.281
FIC Index ([7]; Chp peptide + Azithromycin): 0.563
FIC Index ([7]; Chp peptide + Aztreonam): 0.313
FIC Index ([7]; Chp peptide + Ciprofloxacin): 0.531
FIC Index ([7]; Chp peptide + Colistin): 0.375
FIC Index ([7]; Chp peptide + Gentamicin): 0.313
FIC Index ([7]; Chp peptide + Imipenem): 0.531
FIC Index ([7]; Chp peptide + Levofloxacin): 0.5
FIC Index ([7]; Chp peptide + Meropenem): 0.375
FIC Index ([7]; Chp peptide + Piperacillin): 0.375
FIC Index ([7]; Chp peptide + Tobramycin): 0.188
Chp peptide FIC ([7]; in combination with Amikacin): 0.03125
Chp peptide MIC ([7]; in combination with Amikacin): 0.03125 µg/mL
Chp peptide FIC [7, 10]: 0.0625
Chp peptide MIC [7, 10]: 0.03125 µg/mL
Chp peptide FIC ([7]; in combination with Aztreonam): 0.0625
Chp peptide MIC ([7]; in combination with Aztreonam): 0.0625 µg/mL
Chp peptide FIC [7, 11]: 0.5
Chp peptide MIC [7, 11]: 0.5 µg/mL
Chp peptide FIC ([7]; in combination with Colistin): 0.25
Chp peptide MIC ([7]; in combination with Colistin): 0.25 µg/mL
Chp peptide FIC ([7]; in combination with Gentamicin): 0.0625
Chp peptide MIC ([7]; in combination with Gentamicin): 0.0625 µg/mL
Chp peptide FIC ([7]; in combination with Imipenem): 0.03125
Chp peptide MIC ([7]; in combination with Imipenem): 0.01562 µg/mL
Chp peptide FIC [7, 12]: 0.25
Chp peptide MIC [7, 12]: 0.25 µg/mL
Chp peptide FIC ([7]; in combination with Meropenem): 0.125
Chp peptide MIC ([7]; in combination with Meropenem): 0.125 µg/mL
Chp peptide FIC [7, 13]: 0.125
Chp peptide MIC [7, 13]: 0.125 µg/mL
Chp peptide FIC ([7]; in combination with Tobramycin): 0.0625
Chp peptide MIC ([7]; in combination with Tobramycin): 0.0625 µg/mL
Serial Passage MIC Day 0 ([8]; 21-day study, Day 0, duplicates (1),(2)): 0.25 µg/mL
Serial Passage MIC Day 21 ([8]; 21-day study, Day 21, duplicates (1),(2)): 0.25 µg/mL
Serial Passage MIC Day 0 (untreated) ([8]; Day 0, MIC of agent on untreated control culture): 0.25 µg/mL
Serial Passage MIC Day 0 ([8]; Day 0, cultures passaged with agent, duplicates (1),(2)): 0.25 µg/mL
Serial Passage MIC Day 1 (untreated) ([8]; Day 1, MIC of agent on untreated control culture): 0.25 µg/mL
Serial Passage MIC Day 1 ([8]; Day 1, cultures passaged with agent, duplicates (1),(2)): 0.25 µg/mL
Serial Passage MIC Day 2 (untreated) ([8]; Day 2, MIC of agent on untreated control culture): 0.25 µg/mL
Serial Passage MIC Day 2 ([8]; Day 2, cultures passaged with agent, duplicates (1),(2)): 0.25 µg/mL
Serial Passage MIC Day 3 (untreated) ([8]; Day 3, MIC of agent on untreated control culture): 0.25 µg/mL
Serial Passage MIC Day 3 ([8]; Day 3, cultures passaged with agent, duplicates (1),(2)): 0.25 µg/mL
Serial Passage MIC Day 4 (untreated) ([8]; Day 4, MIC of agent on untreated control culture): 0.25 µg/mL
Serial Passage MIC Day 4 ([8]; Day 4, cultures passaged with agent, duplicates (1),(2)): 0.25 µg/mL
Serial Passage MIC Day 5 (untreated) ([8]; Day 5, MIC of agent on untreated control culture): 0.25 µg/mL
Serial Passage MIC Day 5 ([8]; Day 5, cultures passaged with agent, duplicates (1),(2)): 0.25 µg/mL
Serial Passage MIC Day 6 (untreated) ([8]; Day 6, MIC of agent on untreated control culture): 0.25 µg/mL
Serial Passage MIC Day 6 ([8]; Day 6, cultures passaged with agent, duplicates (1),(2)): 0.25 µg/mL
Serial Passage MIC Day 7 (untreated) ([8]; Day 7, MIC of agent on untreated control culture): 0.25 µg/mL
Serial Passage MIC Day 7 ([8]; Day 7, cultures passaged with agent, duplicates (1),(2)): 0.25 µg/mL
Serial Passage MIC Day 8 (untreated) ([8]; Day 8, MIC of agent on untreated control culture): 0.25 µg/mL
Serial Passage MIC Day 8 ([8]; Day 8, cultures passaged with agent, duplicates (1),(2)): 0.25 µg/mL
Serial Passage MIC Day 9 (untreated) ([8]; Day 9, MIC of agent on untreated control culture): 0.25 µg/mL
Serial Passage MIC Day 9 ([8]; Day 9, cultures passaged with agent, duplicates (1),(2)): 0.25 µg/mL
change in MIC after 21 days ([8]; serial passage): no significant change
